# Measured values reported in article PMC3793267 (Biomarkers, 2008).
# How the values were obtained:
# [1] = test system: Erythrocyte AChE; settings: steady (linear) recovery; ref Mason [2000]; cited from earlier work
# [2] = target: T1, rat plasma albumin (Rattus norvegicus, UniProt P02770); assay: biochemical; format: binding
# [3] = target: T1, rat plasma albumin; assay: Plasma albumin binding by pesticide in vivo after oral dosing of rats; set-up: species or system F344 rats; settings: for inhibition of binding of the ^3H-DFP-radiolabelled albumin molecules in vivo: 25% of LD50, plasma 1 day after dosing
# [4] = target: erythrocyte AChE (Rattus norvegicus, UniProt P37136); assay: Erythrocyte AChE inhibition after oral dosing of rats; format: in vivo, F344 rats
# [5] = test system: rats; assay: Clinical signs in rats after oral dosing
# T1 sequence (P02770 25-608): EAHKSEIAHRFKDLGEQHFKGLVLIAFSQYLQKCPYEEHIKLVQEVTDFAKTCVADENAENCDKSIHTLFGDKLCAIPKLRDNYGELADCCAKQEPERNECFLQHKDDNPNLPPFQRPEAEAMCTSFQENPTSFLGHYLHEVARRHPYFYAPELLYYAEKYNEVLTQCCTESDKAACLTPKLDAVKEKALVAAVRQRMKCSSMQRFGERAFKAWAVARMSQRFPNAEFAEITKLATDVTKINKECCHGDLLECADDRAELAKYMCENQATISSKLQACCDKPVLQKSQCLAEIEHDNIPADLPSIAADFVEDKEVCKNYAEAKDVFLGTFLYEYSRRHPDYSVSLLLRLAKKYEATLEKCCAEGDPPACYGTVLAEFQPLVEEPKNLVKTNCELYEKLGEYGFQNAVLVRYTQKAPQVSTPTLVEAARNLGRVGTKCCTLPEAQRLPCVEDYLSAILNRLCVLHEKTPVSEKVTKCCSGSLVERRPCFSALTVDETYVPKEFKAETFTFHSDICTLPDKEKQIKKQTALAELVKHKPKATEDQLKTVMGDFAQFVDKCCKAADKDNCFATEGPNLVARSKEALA
compound,measurement,setting,value
COP(=O)(OC)OC=C(Cl)Cl [dichlorvos],time for erythrocyte AChE to return to control levels,[1],approximately 82 days
CCOC(=O)CC(SP(=O)(OC)OC)C(=O)OCC (stereo not shown) [Malaoxon],rat plasma albumin binding (^3H-DFP radiolabelling) reduced from controls,[2],8±1%
"CCN(CC)c1nc(C)cc(OP(=S)(OC)OC)n1 [Pirimiphos-methyl, O-2-diethylamino-6-methylpyrimidin-4-yl O,O-dimethyl phosphorothioate]",inhibition of binding of the ^3H-DFP-radiolabelled albumin molecules in vivo,[3],approximately 50%
"COP(=O)(OC)SCn1c(=O)oc2cc(Cl)cnc21 [Azamethiphos (oxon), S-6-chloro-2,3-dihydro-2-oxo-1,3-oxazolo[4,5-b]pyridin-3-ylmethyl O,O-dimethyl phosphorothioate]",rat plasma albumin binding (^3H-DFP radiolabelling) reduced from controls,[2],9±1%
"CCOP(=O)(OCC)OC(=CCl)c1ccc(Cl)cc1Cl [Chlorfenvinphos (oxon), 2-chloro-1-(2,4-dichlorophenyl)vinyl diethyl phosphate]",IC50,[2],~0.4 µM
same,^3H-DFP incorporation into rat plasma albumin versus controls (significance),[2],significantly different from controls
same,rat plasma albumin binding (^3H-DFP radiolabelling) reduced from controls,[2],67±2%
same,inhibition of binding of the ^3H-DFP-radiolabelled albumin molecules in vivo,[3],approximately 50%
same,^3H-DFP radiolabelled albumin molecules bound in vivo,"[3]; each of the doses 12.5%, 25% and 80% of LD50, 24 h after dosing",approximately 50%
same,inhibition at 1.25 mg/kg,"[4]; rat, po, read-out: erythrocyte AChE inhibition",22%
same,clinical signs,[5]; 12.5% of LD50 (1.25 mg kg^−1),not the lower dose
same,clinical signs,[5]; 80% of LD50 (8.0 mg kg^−1),salivation and muscle fasciculation in all rats
"CCOC(=O)CC(SP(=S)(OC)OC)C(=O)OCC (stereo not shown) [Malathion, diethyl (dimethoxyphosphinothioylthio)succinate]",erythrocyte AChE inhibition,"[4]; rats, oral, (approximately) 25% of LD50, Day 1 (24 h) after dosing",57%
